Tested on: in-vitro oral biofilms
Assay: Effect of treatment with active agents on the composition of in-vitro oral biofilms (Calgary Biofilm Device, 16S rRNA pyrosequencing)
Type: cell-based, oral bacteria
Text: An in-vitro oral biofilm model for oral care product evaluation has recently been developed using the commercially available Calgary Biofilm Device (CBD) (Ceri, Olson, Stremick, Read, Morck, Buret, J Clin Microbiol. (1999) June; 37(6):1771-6) seeded with a natural saliva inoculum (Kistler, Pesaro, Wade, BMC Microbiol. (2015) December; 15(1):364). The pegs of the CBD were coated in hydroxyapatite to provide a surface that was chemically similar to tooth enamel. […] In addition, the composition of the biofilms was reproducible when derived from saliva of the same individuals at different time points.
Approximately 5 ml of saliva was collected from each volunteer by expectoration into sterile universal tubes. The saliva samples were then pooled together in equal volumes. DNA was extracted from an aliquot of the pooled saliva and 200 μl was pipetted into each well of a microtitre plate, as required. The wells around the edge of the microplate were not used. The device lid, with 96 hydroxyapatite-coated pegs (to mimic teeth) was fitted so that the pegs were bathed in saliva. The CBD was then incubated for 18 hours at 37° C. in air+5% CO2 after which the lid was transferred to a new baseplate containing Brain Heart Infusion (BHI) broth (Fluka Analytical) supplemented with hog gastric mucin (1 g/L), haemin (10 mg/L), and vitamin K (0.5 mg/L). The growth medium was changed after every 3.5 days.
The active agents were prepared as follows: 5% or 7.5% stock solutions were made in absolute ethanol. The stock solutions were then diluted to working concentration in sterile PBS. Thymol was diluted down to a final concentration of 0.1% v/v and the composition according to the invention, comprising 95% carrier and 5% of the compound of formula A, was diluted to 0.15% v/v. The final test concentration of the compound of formula A was 0.0075 wt.-%.
At 7 days, biofilms were treated with the active agents or a negative PBS control. […]
The bacterial composition of the biofilms and saliva was determined using 454 pyrosequencing of partial 16S rRNA genes. […]

## Cc1ccc(C(C)C)c(O)c1 [Thymol]
Community membership (Jaccard index) and structure (thetaYC)
  PCoA clustering of treated biofilms relative to negative control: did not cluster separately
Richness of the biofilm community, treated twice daily for seven days, thymol 0.1% v/v, composition 0.15% v/v, 10 replicates
  Mean no. of OTUs (sd): 250.8
Summary statement
  Effect on the composition of in-vitro biofilms: did not have a significant effect

— US20220031590A1, “ORAL CARE COMPOSITION” (SYMRISE AG, priority 2016, published 2022)
